This note sets out measurements from patent US10568879B2 (GALAPAGOS NV, priority 2015, dated 2020).

pIC50: −log10 of the molar value. Like-named read-outs stand apart in the source and are kept apart here.

In one test the target is T1, GPR84 (Homo sapiens, UniProt Q9NQS5).
T1 construct: expressed in transfected cells
Nature of the test: GPR84 [35S]GTPγS binding assay. It is filed as biochemical. Particulars: 3,3′-diindolylmethane at EC80; membranes from stable cell line over expressing GPR84. A digest of the protocol: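 Antagonist-mode [35S]GTPγS binding on membranes from a GPR84-overexpressing stable line (GDP-preincubated), stimulated with 3,3′-diindolylmethane at EC80. Buffer 20 mM Tris pH 7.5, 5 mM MgCl2, 250 mM NaCl, saponin; 0.1 nM [35S]GTPγS, 90 min at room temperature, SPA bead read-out.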
A general note: Binding of GTPγS marks nucleotide exchange on a G protein.

In a further test the test system is human neutrophils. Nature of the test: Human neutrophil migration assay. In kind it is cell-based. Conditions: for pIC50: Homo sapiens, Neutrophil, read-out: Human neutrophil migration IC50. On the procedure: The activity of GPR84 agonists and antagonists can therefore be assayed in a human neutrophil migration assay. The human neutrophil migration assay makes use of freshly isolated human neutrophils from buffy coats that are subsequently used in a functional chemotaxis assay setup. […] After 1 h of incubation at 37° C. and 5% CO2, the number of migrated neutrophils in the lower compartment can be quantified by measuring the ATP content using ATPlite™ Luminescence Assay System. A human buffy coat suspension is diluted with an equal volume of ice cold DPBS. 20 mL of the diluted buffy coat suspension is gently mixed with 4 mL of ACD buffer (140 mM citric acid, 200 mM sodium citrate and 220 mM dextrose). Then, 12 mL of a 6% dextran/0.9% NaCl solution (15 g dextran T2000 and 2.25 g NaCl dissolved in 250 mL H2O) is added to the mixture and the samples are inverted gently up to 20 times. The total volume is transferred to a new recipient and incubated at room temperature to allow sedimentation of red blood cells. The yellowish upper fraction is then transferred to a clean centrifugation tube and centrifuged for 12 min at 1300 rpm and 4° C. After centrifugation, the supernatant is discarded and the remaining cell pellet is rapidly resuspended in 12 mL of ice-cold H2O to perform a red blood cell lysis by osmotic burst. After 20 seconds, 4 mL of ice-cold 0.6 M KCl is added to restore salt concentration. Samples are mixed carefully and centrifuged for 6 min at 1300 rpm and 4° C. The supernatant is discarded and the red blood cell lysis procedure is repeated one more time. […] A neutrophil cell suspension of 8.9×10^6 cells per mL is prepared in chemotaxis buffer and 180 μL per well is plated in a 96-well V-bottom plate. 20 μL of test compound solution in chemotaxis buffer is added to the 180 μL cell suspension. The mixture is incubated at room temperature for 30 min with intermediate gentle resuspension of the cells after 15 min. […] After 1 h at 37° C., 5% CO2 in a humidified incubator, the upper plate of the Transwell® system is gently removed. […] After incubation, 270 μL of cell lysate is then transferred onto a white 96-well plate for quantification by a luminescence plate reader. The relative luminescent signal measured is considered linearly related to the number of cells having migrated from the upper compartment into the receiver well.

Where [1] appears, read: embelin at EC80 as chemotactic agent, 1 h at 37° C.

T1 sequence (Q9NQS5 whole entry): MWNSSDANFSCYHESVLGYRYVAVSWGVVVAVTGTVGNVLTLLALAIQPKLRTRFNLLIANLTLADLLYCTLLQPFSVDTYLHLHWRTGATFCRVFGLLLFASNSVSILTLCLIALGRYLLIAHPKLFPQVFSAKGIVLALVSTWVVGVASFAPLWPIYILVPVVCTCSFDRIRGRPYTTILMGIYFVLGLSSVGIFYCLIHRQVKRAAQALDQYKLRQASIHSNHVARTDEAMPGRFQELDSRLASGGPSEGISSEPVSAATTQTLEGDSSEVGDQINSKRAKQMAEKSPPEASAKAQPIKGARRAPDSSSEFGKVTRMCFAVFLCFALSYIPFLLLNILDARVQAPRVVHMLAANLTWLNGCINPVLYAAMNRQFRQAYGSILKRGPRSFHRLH

With `COc1cc2c(cc1OC)-c1cc(=O)cc(NCC3CCCO3)n1CC2` (centres unmarked) [Compound 4, 9,10-Dimethoxy-4-[(tetrahydro-furan-2-ylmethyl)-amino]-6,7-dihydro-pyrido[2,1-a]isoquinolin-2-one], the pIC50 at GPR84 and in the test with human neutrophils (setting [1]) was under 6.00 in each case.
As for `COc1cc2c(cc1OC)-c1c(C)c(=O)cc(NC[C@@H]3COCCO3)n1CC2` [Compound 6, 4-[[(2R)-1,4-dioxan-2-yl]methylamino]-9,10-dimethoxy-1-methyl-6,7-dihydrobenzo[a]quinolizin-2-one], the pIC50 at GPR84 is 6.00 to 6.30; with human neutrophils (setting [1]) it was under 6.00.
The matching figures for `Cc1c2n(c(NCC3CCCO3)cc1=O)CCc1cc(OCC3CC3(F)F)ccc1-2` (centres unmarked) [Compound 7, 9-(2,2-Difluoro-cyclopropylmethoxy)-1-methyl-4-[(tetrahydro-furan-2-ylmethyl)-amino]-6,7-dihydro-pyrido[2,1-a]isoquinolin-2-one]: 7.00 to 11.00 and 6.30 to 7.00.
The matching figures for `Cc1c2n(c(NCC3CCCO3)cc1=O)CCc1cc(OC3CCCO3)ccc1-2` (centres unmarked) [Compound 9, -Methyl-4-[(tetrahydro-furan-2-ylmethyl)-amino]-9-(tetrahydro-furan-2-yloxy)-6,7-dihydro-pyrido[2,1-a]isoquinolin-2-one]: 6.30 to 7.00 and 6.30 to 7.00.
On the same counts, the results for `Cc1c2n(c(NCC3CCCCO3)cc1=O)CCc1cc(OCC(F)F)ccc1-2` (centres unmarked) [Compound 13, 9-(2,2-difluoroethoxy)-1-methyl-4-(tetrahydropyran-2-ylmethylamino)-6,7-dihydrobenzo[a]quinolizin-2-one] are 6.30 to 7.00 and 6.30 to 7.00.
Turning to `Cc1c2n(c(NCC3CCCCO3)cc1=O)CCc1cc(OCC(F)(F)F)ccc1-2` (centres unmarked) [Compound 14, 1-methyl-4-(tetrahydropyran-2-ylmethylamino)-9-(2,2,2-trifluoroethoxy)-6,7-dihydrobenzo[a]quinolizin-2-one], the pIC50 at GPR84 and in the test with human neutrophils (setting [1]) was 7.00 to 11.00 in each case.
In the case of `COc1ccc2c(c1OC)CCn1c(NCC3CCCCO3)cc(=O)c(C)c1-2` (centres unmarked) [Compound 16, 8,9-dimethoxy-1-methyl-4-(tetrahydropyran-2-ylmethylamino)-6,7-dihydrobenzo[a]quinolizin-2-one], the figures for the pIC50 on GPR84 and in the test with human neutrophils (setting [1]) were 7.00 to 11.00 and 6.30 to 7.00, respectively.
In the case of `COc1ccc2c(c1OC)CCn1c(NCC3COCCO3)cc(=O)c(C)c1-2` (centres unmarked) [Compound 17, 4-(1,4-dioxan-2-ylmethylamino)-8,9-dimethoxy-1-methyl-6,7-dihydrobenzo[a]quinolizin-2-one], the pIC50 on GPR84 is 7.00 to 11.00; in the test with human neutrophils (setting [1]), 6.30 to 7.00.
The matching figures for `COc1ccc2c(c1OC)CCn1c(NCC3COCCO3)cc(=O)cc1-2` (centres unmarked) [Compound 19, 4-(1,4-dioxan-2-ylmethylamino)-8,9-dimethoxy-6,7-dihydrobenzo[a]quinolizin-2-one]: 6.00 to 6.30 and under 6.00.
As for `COc1ccc2c(c1OC)CCn1c(NCC3CCCO3)cc(=O)cc1-2` (centres unmarked) [Compound 20, 8,9-dimethoxy-4-(tetrahydrofuran-2-ylmethylamino)-6,7-dihydrobenzo[a]quinolizin-2-one], the pIC50 at GPR84 and with human neutrophils (setting [1]) was under 6.00 throughout.
Consider `COc1c(O)ccc2c1CCn1c(NCC3COCCO3)cc(=O)cc1-2` (centres unmarked) [Compound 21, 4-(1,4-dioxan-2-ylmethylamino)-9-hydroxy-8-methoxy-6,7-dihydrobenzo[a]quinolizin-2-one], for which the pIC50 on GPR84 and in the test with human neutrophils (setting [1]) was under 6.00 throughout.
Take `COc1ccc2c(c1O)CCn1c(NCC3COCCO3)cc(=O)cc1-2` (centres unmarked) [Compound 22, 4-(1,4-dioxan-2-ylmethylamino)-8-hydroxy-9-methoxy-6,7-dihydrobenzo[a]quinolizin-2-one]: the pIC50 at GPR84 and in the test on human neutrophils (setting [1]) was under 6.00 in each case.
In the case of `COc1c(OCC(F)F)ccc2c1CCn1c(NCC3COCCO3)cc(=O)c(C)c1-2` (centres unmarked) [Compound 23, 9-(2,2-Difluoro-ethoxy)-4-[([1,4]dioxan-2-ylmethyl)-amino]-8-methoxy-1-methyl-6,7-dihydro-pyrido[2,1-a]isoquinolin-2-one], the pIC50 on GPR84 and with human neutrophils (1 h) was 7.00 to 11.00 each time.
For `COc1c(OCC(F)F)ccc2c1CCn1c(NCC3CCCO3)cc(=O)c(C)c1-2` (centres unmarked) [Compound 24, 9-(2,2-Difluoro-ethoxy)-8-methoxy-1-methyl-4-[(tetrahydro-furan-2-ylmethyl)-amino]-6,7-dihydro-pyrido[2,1-a]isoquinolin-2-one], the pIC50 at GPR84 was 7.00 to 11.00; in the test with human neutrophils (setting [1]), 6.30 to 7.00.
On the same counts, the results for `Cc1c2n(c(OC[C@@H]3COCCO3)cc1=O)CCc1cc(C#N)ccc1-2` [Compound 25, 4-[[(1S)-1,4-dioxan-2-yl]methoxy]-1-methyl-2-oxo-6,7-dihydrobenzo[a]quinolizine-9-carbonitrile] are 6.00 to 6.30 and under 6.00.
On to `CCc1c2n(c(NCC3CCCO3)cc1=O)CCc1cc(OCC(F)F)ccc1-2` (centres unmarked) [Compound 26, 9-(2,2-difluoroethoxy)-1-ethyl-4-(tetrahydrofuran-2-ylmethylamino)-6,7-dihydrobenzo[a]quinolizin-2-one], for which the pIC50 on GPR84 and in the test on human neutrophils (setting [1]) was 6.00 to 6.30 each time.
On to `CCc1c2n(c(NCC3CCCO3)cc1=O)CCc1cc(OCC(F)(F)F)ccc1-2` (centres unmarked) [Compound 27, 1-ethyl-4-(tetrahydrofuran-2-ylmethylamino)-9-(2,2,2-trifluoroethoxy)-6,7-dihydrobenzo[a]quinolizin-2-one], for which the pIC50 at GPR84 was 6.00 to 6.30; with human neutrophils (setting [1]), 6.30 to 7.00.
On the same counts, the results for `COc1ccc2c(c1OC)CCn1c(OCC3CCCO3)cc(=O)c(C)c1-2` (centres unmarked) [Compound 28, 8,9-dimethoxy-1-methyl-4-(tetrahydrofuran-2-ylmethoxy)-6,7-dihydrobenzo[b]quinolizin-2-one] are 7.00 to 11.00 and 7.00 to 11.00.
With `Cc1c2n(c(NC[C@@H]3COCCO3)cc1=O)CCc1cc(OCc3ccccc3)ccc1-2` [Compound 34, 9-benzyloxy-4-[[(2R)-1,4-dioxan-2-yl]methylamino]-1-methyl-6,7-dihydrobenzo[a]quinolizin-2-one], in the test with human neutrophils (setting [1]), the pIC50 is 7.00 to 11.00.
As to `Cc1ccc(COc2ccc3c(c2)CCn2c(OC[C@@H]4COCCO4)cc(=O)c(C)c2-3)cn1` [Compound 52, 4-[[(2S)-1,4-dioxan-2-yl]methoxy]-1-methyl-9-[(6-methyl-3-pyridyl)methoxy]-6,7-dihydrobenzo[a]quinolizin-2-one], the pIC50 in the test on human neutrophils (setting [1]) is 7.00 to 11.00.
On the same count and under the same terms, to `Cc1c2n(c(OC[C@@H]3COCCO3)cc1=O)CCc1cc(N3CCN(C(=O)OC(C)(C)C)CC3)ccc1-2` [Compound 60, tert-butyl 4-[4-[[(2S)-1,4-dioxan-2-yl]methoxy]-1-methyl-2-oxo-6,7-dihydrobenzo[a]quinolizin-9-yl]piperazine-1-carboxylate] belongs 7.00 to 11.00.
The same measure, in the same setting: the result for `Cc1c2n(c(OC[C@@H]3COCCO3)cc1=O)CCc1cc(C3CN(C(=O)OC(C)(C)C)C3)ccc1-2` [Compound 71, tert-butyl 3-[4-[[(2S)-1,4-dioxan-2-yl]methoxy]-1-methyl-2-oxo-6,7-dihydrobenzo[a]quinolizin-9-yl]azetidine-1-carboxylate] reads 7.00 to 11.00.
Still for that read-out and setting: to `Cc1c2n(c(OC[C@@H]3COCCO3)cc1=O)CCc1cc(OCCOC(F)(F)F)ccc1-2` [Compound 72, 4-[[(2S)-1,4-dioxan-2-yl]methoxy]-1-methyl-9-[2-(trifluoromethoxy)ethoxy]-6,7-dihydrobenzo[a]quinolizin-2-one] belongs 7.00 to 11.00.
Regarding `Cc1c2n(c(OCC3COCCO3)cc1=O)CCc1cc(OCC(F)(F)F)ccc1-2` (centres unmarked) [Compound 90, 4-(1,4-dioxan-2-ylmethoxy)-1-methyl-9-(2,2,2-trifluoroethoxy)-6,7-dihydrobenzo[a]quinolizin-2-one], the pIC50 in the test with human neutrophils (setting [1]) is 7.00 to 11.00.
With `CCCCCCCCCC(=O)[O-].[Na+]` [sodium decanoate, reference compound], the “neutrophil chemotaxis induced by GPR84 agonists” value with human neutrophils was “induce neutrophil chemotaxis”.
For `CCCCCCCCCCC(=O)[O-].[Na+]` [sodium undecanoate, reference compound], the “neutrophil chemotaxis induced by GPR84 agonists” value with human neutrophils is “induce neutrophil chemotaxis”.
